From patent EP0229966A1, “Process for the control of weeds in useful plant cultures and means for performing the process” (SIEGFRIED AKTIENGESELLSCHAFT, priority 1985, dated 1987)

What was measured:
Maus = conditions: cited from earlier work
[1] = test system: Chenopodium album ("CHEAL"); assay: Field trial, Swiss Mittelland, percent weed control from plant counts (Tabelle II); type: in vivo, Chenopodium album L.; conditions: four weeks after treatment
Description: Die Tabelle II zeigt Resultate von Versuchen, die im Freien, nämlich im schweizerischen Mittelland auf mittelschwerem sandigem Lehmboden durchgeführt wurden. Die hier wiedergegebenen Werte sind Prozent-Zahlen, die errechnet wurden aufgrund der Formel [formula] wobei AK die Individuenzahl der jeweiligen Unkraut-Art pro Flächeneinheit der unbehandelten Kontrollparzelle und AB die entsprechende Individuenzahl pro Flächeneinheit der jeweiligen behandelten Partelle bedeutet. Die Ermittlung der Wirkung erfolgte vier Wochen nach Behandlung.

[2] = test system: 7 repräsentative Unkraut- arten; assay: Greenhouse pot test, spray directly after sowing, EWRC rating, weeds (Tabelle I); type: in vivo; conditions: EWRC scale, 1 = völlige Abtötung, 9 = völlige Wirkungslosigkeit
Description: (§1) Der Tabelle 1 liegen orientierende Versuche zugrunde, welche im klimatisierten Gewächshaus durchgeführt wurden, wobei 7 repräsentative Unkraut- arten und als Beispiel einer Kulturpflanze Raps benützt wurden. Unmittelbar nach dem Beschicken der Kunststofftöpfe mit dem Saatgut wurde (abge-
(§2) sehen von der unbehandelt bleibenden Kontrollserie) je eine Serie behandelt durch Aufsprühen einer wässrigen Suspension bzw. Emulsion, welche als Herbizid entweder nur den Aktivstoff I oder II in unterschiedlicher Menge oder beide Stoffe kombiniert in unterschiedlichen Mengen und Mengenverhältnissen enthielt. Die eingesetzten Aktivstoff-Mengen wurden umgerechnet auf die Aufwändmengen in Gramm Wirkstoff pro Hektar. Die Effekte wurden innert vier Wochen mehrmals begutachtet und protokolliert.
(§3) Die in der Tabelle I enthaltenen Wirkungsangaben wurden nach der Bonitierungs-Skala des European Weed Research Council (EWRC) bestimmt, wobei hier sowohl für Unkräuter wie auch für Kulturpflanze der Wert 1 der völligen Abtötung und der Wert 9 der völligen Wirkungslosigkeit zugeordnet wurde: […]

Raps = assay: Greenhouse pot test, spray directly after sowing, crop tolerance (Tabelle I); type: in vivo
Description: as §1, §2, §3

Ratte = conditions: cited from earlier work

CCN(CC)C(=O)SCc1ccccc1Cl [Aktivstoff I, S-(2-Chlorbenzyl)-N,N-diethyl-thiocarbamat]
LD 50 p.o. (Maus): ~1850 mg/kg | Wirkung auf Chenopodium album ([1]; 4000 g/ha Aktivstoff I alone): 87% | Durchschnittswert (EWRC) gegenüber den 7 Unkraut-Arten ([2]; 4000 g/ha Aktivstoff I alone): 3,5 | Schädigung Raps (Raps; 2000 g/ha Aktivstoff I alone): deutlich geschädigt

Cc1cccc(C)c1N(Cn1cccn1)C(=O)CCl [Aktivstoff II, N-(2,6-Dimethylphenyl)-N-(1-pyrazolylmethyl)-chloracetamid]
Wirkung auf Chenopodium album ([1]; 1000 g/ha Aktivstoff II alone): 91% | Durchschnittswert (EWRC) gegenüber den 7 Unkraut-Arten ([2]; 1000 g/ha Aktivstoff II alone): 5,5 | Schädigung Raps (Raps; 500 g/ha Aktivstoff II alone): deutlich geschädigt | LD 50 p.o. (Ratte): 2150 mg/kg
